The values that follow come from patent publication US10377784B2, “Design, synthesis, and biological activity of platinum-benz[c]acridine hybrid agents and methods associated therewith” (Wake Forest University, priority 2014, dated 2019).

One data set concerns NCI-H460. Kind of data set: Cytotoxicity assay (MTS, Celltiter 96) in NCI-H460. It counts as cell-based, human. Particulars: for IC50: 72 h drug incubation, MTS assay, mean of duplicate experiments ± SD. The procedure:
(§1) After successful synthesis and purification of P1-A1, P1-B1, and P1-B2 was completed, each drug was tested for its cell-kill ability in five non-small-cell lung cancer cell lines (Table 2).
(§2) ^aConcentration of compound that reduces cell viability by 50%, determined at 72 h of drug incubation using the MTS (3-(4,5-dimethylthiazol-2-yl)-5-(3-carboxymethoxyphenyl)-2-(4-sulfophenyl)-2H-tetrazolium) assay. Values are means of duplicate experiments±the standard deviation. ^bCompound not tested in this cell line.
(§3) The human non-small cell lung cancer cell lines, NCI-H460 (large cell), NCI-H520 (squamous cell), NCI-H522, NCI-H1435 and A549 (adenocarcinomas) were obtained from the American Type Culture Collection (Rockville, Md., USA). NCI-H460, NCI-H520 and NCI-H522 cells were cultured in RPMI-1640 media (HyClone) supplemented with 10% fetal bovine serum (FBS), […] (P&S), […], and 1.5 g/L NaHCO3. A549 cells were cultured in HAM's F12K media (Gibco) with the same additives as above. NCI-H1435 cells were cultured in serum-free 1:1 DMEM/F12 media (Gibco) containing 2.436 g/L NaHCO3, 0.02 mg/mL insulin, 0.01 mg/mL transferrin, 25 nM sodium selenite, 50 nM hydrocortisone, 1 ng/mL epidermal growth factor, 0.01 mM ethanolamine, 0.01 mM phosphorylethanolamine, 100 pM triiodothyronine, 0.5% (w/v) bovine serum albumin (BSA), 10 mM HEPES, 0.5 mM sodium pyruvate, and an extra 2 mM L-glutamine (final concentration 4.5 mM). Cells were incubated at a constant temperature at 37° C. in a humidified atmosphere containing 5% CO2 and were subcultured every 2 to 3 days in order to maintain cells in logarithmic growth, except for NCI-H1435 which was subcultured every 7 days.
(§4) The cytotoxicity studies were carried out according to a standard protocol using the Celltiter 96 aqueous nonradioactive cell proliferation assay kit (Promega, Madison, Wis.). Stock solutions (10 mM) of all drugs were made in DMF, except for P1-B2 which was made in DMSO, and serially diluted with media prior to incubation with cancer cells. IC50 values were calculated from nonlinear curve fits using a sigmoidal dose-response equation in GraphPad Prism (GraphPad Software, La Jolla, Calif.).
For orientation: Tetrazolium assays rely on reduction of a dye to a coloured formazan, in cell work by metabolically active cells.

A further data set concerns NCI-H520. The data set can be described thus: Cytotoxicity assay (MTS, Celltiter 96) in NCI-H520. As to conditions: mean of duplicate experiments ± SD. It counts as cell-based, human. The procedure: as §1, §2, §3, §4
The next data set relates to NCI-H522. The data set can be described thus: Cytotoxicity assay (MTS, Celltiter 96) in NCI-H522. It counts as cell-based, human. Particulars: 72 h drug incubation, mean of duplicate experiments ± SD. The procedure:
as §1, §2, §3
(§5) The cytotoxicity studies were carried out according to a standard protocol using the Celltiter 96 aqueous nonradioactive cell proliferation assay kit (Promega, Madison, Wis.). […] IC50 values were calculated from nonlinear curve fits using a sigmoidal dose-response equation in GraphPad Prism (GraphPad Software, La Jolla, Calif.).

Another data set concerns NCI-H1435. The data set can be described thus: Cytotoxicity assay (MTS, Celltiter 96) in NCI-H1435. As to conditions: 72 h drug incubation, mean of duplicate experiments ± SD. It counts as cell-based, human. The procedure:
as §1, §2, §3, §5

In the next data set the test system is A549. Kind of data set: Cytotoxicity assay (MTS, Celltiter 96) in A549. It counts as cell-based, human. As to conditions: 72 h drug incubation, mean of duplicate experiments ± SD. The procedure:
as §1, §2, §3, §5

The nature of data set [1]: Spectrophotometric determination of pKa values for platinum complexes. It counts as physicochemical. Particulars: spectrophotometric titration at 25° C.; numeric values only in Chart 3 drawing. The procedure:
The pKa values of P1-A1, P1-B1 and P1-B2 were determined spectrophotometrically using a Hewlett Packard 8354 spectrophotometer equipped with a Peltier temperature control and a cell stirring module. Titrations were carried out at 25° C. in the pH range 2-11 with a micro combination electrode placed inside the cuvette. Solutions of P1-A1 (˜100 μM), P1-B1 (˜100 μM), and P1-B2 (˜50 μM) in 0.1 M HCl/100 mM NaCl were titrated with aliquots of 0.4 M, 0.04M, and 0.004M KOH, and UV-Vis spectra were recorded after a 2 min equilibration time. The protonation state of the chromophores was deduced from spectral changes around isosbestic points. The pKa values were determined graphically from plots of pH vs. log[k(Aacr/AacrH+)], where k=εacrH+/εacr using suitable absorbance maxima. The pKa values of P1-A1 and P1-B1 were determined at the y-intercept of the plot. […] Reported pKa values are means of three measurements+/−the standard deviation.

A further data set deals with G-quadruplex DNA. The data set can be described thus: G-quadruplex DNA recognition and platination. It counts as binding. As to conditions: for Selective recognition of G-quadruplex DNA: displayed by induced circular dichroism (ICD). In general terms: Circular dichroism is widely used to follow secondary structure.
Data set [2] has as its system non-small-cell lung cancer cell lines. Kind of data set: Cytotoxicity across NSCLC lines (summary statements). It counts as cell-based, human. The procedure: as §1
When observing the structure-activity relationship of the platinum hybrid agents, it is important to note the increased cytotoxicity upon addition of the platinum module.
The human non-small cell lung cancer cell lines, NCI-H460 (large cell), NCI-H520 (squamous cell), NCI-H522, NCI-H1435 and A549 (adenocarcinomas) were obtained from the American Type Culture Collection (Rockville, Md., USA). NCI-H460, NCI-H520 and NCI-H522 cells were cultured in RPMI-1640 media (HyClone) supplemented with 10% fetal bovine serum (FBS), […] (P&S), […], and 1.5 g/L NaHCO3. A549 cells were cultured in HAM's F12K media (Gibco) with the same additives as above. […]
as §5

For the next data set, the system named is DNA from NCI-H460 cells. The data set can be described thus: Platinum content associated with DNA in NCI-H460 cells (ICP-MS). It counts as cell-based, human. Particulars: 1 μM drug, both time points, p>0.05. How it is done:
(§6) To determine the platinum content of nucleic acid material, DNA and RNA was extracted and purified from cells using the Qiagen AllPrep DNA/RNA Mini Kit (Qiagen, Alameda, Calif., USA). 1.5×10^6 exponentially-growing NCI-H460 cells were seeded into 60-mm cell culture dishes with 2 mL of media and were allowed to attach for 24 hours. Cells were incubated in the presence of 1 μM P1-A1 or P1-B1 at 37° C. for various time intervals. Incubations were performed in triplicate for each incubation condition/time point. To quench the incubations, cells were washed three times in cold PBS. The cells were harvested via trypsinization and removed from the dishes with successive washes of cold PBS. Cell suspensions were centrifuged at 1500 rpm for 5min at 4° C. The cell pellet was re-suspended in 5 mL of cold PBS and centrifuged at 1500 rpm for 5 min at 4° C. The supernatant was removed and the DNA/RNA was extracted from the pellet according to the protocol provided by the manufacturer. The concentration and purity of each sample was determined spectrophotometrically (triplicate readings at 260 and 280 nm).
(§7) Platinum content was determined by ICP-MS.

A further data set deals with RNA from NCI-H460 cells. The data set can be described thus: Platinum content associated with RNA in NCI-H460 cells (ICP-MS). It counts as cell-based, human. Particulars: 1 μM drug, 3 h, p<0.05. How it is done: as §6, §7
Setting [3] is: Homo sapiens, NCI-H520, 72 h drug incubation.

For “[Pt(Cl)(NH3)2(N-(2-(acridin-9-ylamino)ethyl)-N-methylpropionimidamide)] Cl [Compound P1-A1, reference compound]”, the IC50 in the data set with NCI-H460 amounted to 0.0052 ± 6e-05 µM; with NCI-H520 (72 h drug incubation) it was 0.043 ± 0.004 µM; in the data set with NCI-H522 it was 0.01 ± 0.0007 µM; with NCI-H1435, 0.84 ± 0.07 µM; in the data set on A549, 0.0065 ± 0.0002 µM. In addition, the “pKa (rank among the three Pt-chromophore hybrid agents)” value in data set [1] is “highest”. For the same compound, in the data set with G-quadruplex DNA, the “Selective recognition of G-quadruplex DNA” value (“Selective recognition” for short) was “not previously displayed”.

On to `CNCCNc1c2ccccc2nc2c1ccc1ccccc12` [Compound B1, N1-(benzo[c]acridin-7-yl)-N2-methylethane-1,2-diamine], for which the half-maximal inhibitory concentration (IC50) in the data set with NCI-H460 (Homo sapiens, NCI-H460) came to 0.9 ± 0.1 µM; in the data set with NCI-H520 (setting [3]), 1.8 ± 0.1 µM. Besides, the “IC50 value (in words)” value with NCI-H460 (NCI-H460 cells, 72 h incubation, chromophore module alone) is listed as “sub-micromolar range”.

On to `CNCCNc1c2cc([N+](=O)[O-])ccc2nc2c1ccc1ccccc12` [Compound B2, N1-methyl-N2-(9-nitrobenzo[c]acridin-7-yl)ethane-1,2-diamine], for which the 50% inhibitory concentration (IC50) in the data set on NCI-H460 (Homo sapiens, NCI-H460) is 2.08 ± 0.04 µM; in the data set on NCI-H520 (setting [3]), 3.35 ± 0.08 µM.

In the case of “[Pt(Cl)(NH3)2(N-(2-(benzo[c]acridin-7-ylamino)ethyl)-N-methylpropionimidamide)] Cl [Compound P1-B1]”, the IC50 is 0.24 ± 0.01 µM in the data set on NCI-H460; 0.516 ± 0.009 µM in the data set on NCI-H520 (72 h drug incubation); 0.12 ± 0.02 µM in the data set on NCI-H522; 1.479 ± 0.009 µM with NCI-H1435; 0.32 ± 0.06 µM with A549; 100 to 500 nM in data set [2] (NSCLC lines tested except NCI-H1435). The “cytotoxicity (in words)” value in data set [2] (72 hour incubations, extremely aggressive NSCLC models) is “nanomolar cytotoxicity”. Moreover, the “platinum level observed in the DNA of treated cells vs control cells” value in the data set with DNA from NCI-H460 cells is listed as “not statistically significant”. Also, the “platinum level observed in the RNA of treated cells” value in the data set with RNA from NCI-H460 cells was “statistically significant”. In the data set on G-quadruplex DNA, the “folding and irreversible platination of G-quadruplex DNA” value was “ability to fold and irreversibly platinate G-quadruplex DNA”. In the data set on G-quadruplex DNA, the “Selective recognition” value is given as “Selective recognition of G-quadruplex DNA”.

As for “[Pt(Cl)(NH3)2(N-methyl-N-(2-((9-nitrobenzo[c]acridin-7-yl)amino)ethyl)propionimidamide)] Cl •1/3 DMF [Compound P1-B2]”, the IC50 in the data set on NCI-H460 stood at 2.4 ± 0.5 µM; in the data set with NCI-H520 (72 h drug incubation) it was 2.2 ± 0.1 µM; in the data set on NCI-H522 it was 3.62 ± 0.08 µM; with NCI-H1435 it was 11 ± 0.2 µM; in the data set on A549, 12.4 ± 0.9 µM. Moreover, the “pKa (rank among the three Pt-chromophore hybrid agents)” value in data set [1] is given as “lowest”. In the data set on G-quadruplex DNA, the “folding and irreversible platination of G-quadruplex DNA” value was “ability to fold and irreversibly platinate G-quadruplex DNA”. Besides, the “Selective recognition” value in the data set with G-quadruplex DNA is “Selective recognition of G-quadruplex DNA”.

Broadly, the IC50 is the concentration at which inhibition is half-maximal.
